Experiment [1] concerns the target T1, Muscarinic acetylcholine receptor M4 (Homo sapiens, UniProt P08173).
T1 sequence (P08173 whole entry): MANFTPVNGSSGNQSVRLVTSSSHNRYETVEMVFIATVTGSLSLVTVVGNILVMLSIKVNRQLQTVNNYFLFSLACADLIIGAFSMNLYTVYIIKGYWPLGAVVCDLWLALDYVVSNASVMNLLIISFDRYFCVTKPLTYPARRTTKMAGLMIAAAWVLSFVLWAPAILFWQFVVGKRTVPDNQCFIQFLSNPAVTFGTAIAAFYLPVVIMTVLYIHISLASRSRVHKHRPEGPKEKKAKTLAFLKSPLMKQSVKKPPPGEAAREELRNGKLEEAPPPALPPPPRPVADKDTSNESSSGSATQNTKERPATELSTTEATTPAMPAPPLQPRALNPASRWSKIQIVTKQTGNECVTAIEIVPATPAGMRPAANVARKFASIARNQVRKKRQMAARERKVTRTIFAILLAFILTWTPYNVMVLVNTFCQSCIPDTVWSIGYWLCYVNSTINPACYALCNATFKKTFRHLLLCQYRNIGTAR
In words: Displacement of [3H]NMS from human cloned muscarinic M4 receptor expressed in CHO cells. In kind it is cell-based. On the technique in general: In a radioligand displacement assay an active substance lowers the binding of a labelled ligand.

A short description of experiment [2]: Intrinsic activity at muscarinic M2 receptor in guinea-pig stimulated left atria assessed as ratio of agonist activity to activity of arecaidine propargyl ester. In kind it is functional, Cavia porcellus.
Experiment [3] has as its target Muscarinic acetylcholine receptor M3 (Cavia porcellus) (UniProt Q8VH26). Kind of experiment: Intrinsic activity at muscarinic M3 receptor in guinea-pig ileum assessed as ratio of agonist activity to activity of arecaidine propargyl ester. In kind it is functional, tissue-based.
Experiment [4] is described as follows: Intrinsic activity at muscarinic M4 receptor in guinea-pig lung strips assessed as ratio of agonist activity to activity of arecaidine propargyl ester. In kind it is functional, Cavia porcellus.
The target of experiment [5] is T2, Muscarinic acetylcholine receptor M2 (Homo sapiens, UniProt P08172).
T2 sequence (P08172 whole entry): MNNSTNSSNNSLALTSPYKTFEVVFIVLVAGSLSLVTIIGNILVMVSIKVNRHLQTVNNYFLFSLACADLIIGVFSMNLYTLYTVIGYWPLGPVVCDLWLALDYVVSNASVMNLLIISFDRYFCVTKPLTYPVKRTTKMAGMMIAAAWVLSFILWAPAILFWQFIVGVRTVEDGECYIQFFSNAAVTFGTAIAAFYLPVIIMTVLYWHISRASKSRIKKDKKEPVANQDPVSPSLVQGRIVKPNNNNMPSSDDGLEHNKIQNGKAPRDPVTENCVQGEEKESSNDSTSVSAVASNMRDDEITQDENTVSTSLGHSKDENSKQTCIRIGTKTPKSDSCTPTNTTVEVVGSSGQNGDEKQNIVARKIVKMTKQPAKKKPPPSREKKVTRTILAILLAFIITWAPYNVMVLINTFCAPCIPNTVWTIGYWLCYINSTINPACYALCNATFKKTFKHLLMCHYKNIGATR
Kind of experiment: Displacement of [3H]NMS from human cloned muscarinic M2 receptor expressed in CHO cells. In kind it is cell-based.

Experiment [6] concerns the target T3, Muscarinic acetylcholine receptor M5 (Homo sapiens, UniProt P08912).
T3 sequence (P08912 whole entry): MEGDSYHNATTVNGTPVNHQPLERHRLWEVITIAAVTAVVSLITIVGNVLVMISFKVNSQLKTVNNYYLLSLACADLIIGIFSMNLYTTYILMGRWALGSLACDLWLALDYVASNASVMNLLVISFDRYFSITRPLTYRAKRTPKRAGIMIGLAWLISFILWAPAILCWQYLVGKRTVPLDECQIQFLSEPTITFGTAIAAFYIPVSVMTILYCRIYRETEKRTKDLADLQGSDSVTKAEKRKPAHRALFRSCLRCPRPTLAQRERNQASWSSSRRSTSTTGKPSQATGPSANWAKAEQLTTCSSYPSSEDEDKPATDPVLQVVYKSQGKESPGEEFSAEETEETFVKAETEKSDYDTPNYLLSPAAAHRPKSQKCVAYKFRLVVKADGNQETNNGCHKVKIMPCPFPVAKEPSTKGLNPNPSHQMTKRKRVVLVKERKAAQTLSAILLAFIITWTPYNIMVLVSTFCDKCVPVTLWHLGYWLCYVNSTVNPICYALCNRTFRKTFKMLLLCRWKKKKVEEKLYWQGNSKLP
Kind of experiment: Displacement of [3H]NMS from human cloned muscarinic M5 receptor expressed in CHO cells. In kind it is cell-based.

A short description of experiment [7]: Antagonist activity at muscarinic M1 receptor in rabbit vas deferens up to 10 uM. In kind it is functional, Oryctolagus cuniculus.
Experiment [8] is described as follows: Intrinsic activity at muscarinic M1 receptor in rabbit stimulated vas deferens assessed as ratio of agonist activity to activity of McN-A-343. In kind it is functional, Oryctolagus cuniculus.

Sequence of Muscarinic acetylcholine receptor M3 (Cavia porcellus) (Q8VH26 1-587): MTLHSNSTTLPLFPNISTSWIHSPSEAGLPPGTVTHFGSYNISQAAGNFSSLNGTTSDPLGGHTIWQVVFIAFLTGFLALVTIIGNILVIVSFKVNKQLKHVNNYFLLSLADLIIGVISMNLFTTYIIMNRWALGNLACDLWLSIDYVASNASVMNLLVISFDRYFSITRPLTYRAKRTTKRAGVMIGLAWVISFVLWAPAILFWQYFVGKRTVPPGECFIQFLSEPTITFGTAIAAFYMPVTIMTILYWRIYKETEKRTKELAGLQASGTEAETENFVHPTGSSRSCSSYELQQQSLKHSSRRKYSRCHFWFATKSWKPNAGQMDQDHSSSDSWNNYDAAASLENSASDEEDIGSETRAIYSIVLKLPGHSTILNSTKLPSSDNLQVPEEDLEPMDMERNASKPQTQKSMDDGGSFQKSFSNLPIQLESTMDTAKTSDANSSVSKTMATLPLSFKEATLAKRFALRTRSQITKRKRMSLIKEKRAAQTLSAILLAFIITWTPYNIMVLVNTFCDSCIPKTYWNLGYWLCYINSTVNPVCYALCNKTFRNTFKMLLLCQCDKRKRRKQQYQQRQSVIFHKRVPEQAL

For orientation: Ki means the dissociation constant of the complex between target and ligand, obtained from inhibition or displacement. Low readings indicate higher affinity, high ones lower affinity. Turning to `C[C@H]1COC[C@H](C[N+](C)(C)C)O1.[I-]`, the Ki in experiment [1] is 45.7 µM; in experiment [5], 5.25 µM. For the same compound, the values for the Intrinsic activity in experiment [2] and in experiment [4] were 0.9 and 0.77, respectively. In addition, the pD2 in experiment [2] was 6.18; in experiment [3], 6.26; in experiment [4], 5.79.

As for `C[C@@H]1COC[C@H](C[N+](C)(C)C)O1.[I-]`, the Ki was 69.2 µM in experiment [1], 44.7 µM in experiment [6] and 6.92 µM in experiment [5]. In addition, the Intrinsic activity in experiment [2] stood at 1. Also, the pD2 in experiment [3] was 6.53; in experiment [7], under 5.

With `C[C@@H]1COC[C@@H](C[N+](C)(C)C)O1.[I-]`, the Ki in experiment [1] is over 100 µM; in experiment [6] it was 87.1 µM; in experiment [5] it was 61.7 µM. Further, the figures for the Intrinsic activity in experiment [2] and in experiment [4] were 0.62 and 0.42, respectively. Further, the pD2 in experiment [2] came to 5.27; in experiment [3] it was 4.54; in experiment [4], 5.22.

On to `C[C@H]1COC[C@@H](C[N+](C)(C)C)O1.[I-]`, for which the values for the Ki in experiment [1], in experiment [6] and in experiment [5] were 9.77 µM, 4.57 µM and 1.26 µM, respectively. The pD2 is 7.65 in experiment [3] and 6.78 in experiment [8]. For the same compound, the Intrinsic activity in experiment [8] and in experiment [4] was 1 each time.

In the case of `CC1COCC(C[N+](C)(C)C)O1` (racemic; form 1), the pD2 in experiment [3] came to 7.34.

Consider `CC1COCC(C[N+](C)(C)C)O1.[I-]` (racemic; form 1), for which the results for the Ki in experiment [1], in experiment [6] and in experiment [5] were 11.5 µM, 7.76 µM and 2.09 µM, respectively. In addition, the Intrinsic activity in experiment [2] and in experiment [8] was 1 in each case. Moreover, the pD2 in experiment [8] was found to be 5.65.

On to `CC1COCC(C[N+](C)(C)C)O1.[I-]` (racemic; form 2), for which the Ki was 87.1 µM in experiment [1], 67.6 µM in experiment [6] and 4.9 µM in experiment [5]. The pD2 in experiment [8] is listed as 5.08.

For `CC1OC(C[N+](C)(C)C)CC1O` (racemic), in experiment [2], the Intrinsic activity was 1 and the pD2 worked out at 6.72. Moreover, in experiment [3], the Intrinsic activity came to 1 and the pD2 worked out at 7.29.
